Some test systems named below: K562; SR; M14; MDA-MB-231; ACHN; KM12; SK-MEL-28; SNB-19; HOP-62; A549; COLO 205; HL-60; IGROV-1; NCI-H522; DU-145; UACC-62; HT-29; RPMI-8226; NCI-H23; 786-0.
What all share (experiment): DTP human tumour cell line panel, 48 h

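Step 1: Grow cells in 96-well plates. Step 2: Expose to compound for 48 hours at 5 concentrations. Step 3: Interpolate endpoints linearly; if unreached, use highest concentration. GI50 is the concentration that inhibits growth by half.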 Active and inactive are the calls of the source. No stated cut-off is given here; in the data, active = GI50 up to about 1.1 µM and inactive = higher.

In the case of `CC1OC(OC2C(O)C(O)C(O)C(O)C2O)C(N)CC1NC(=N)C(=O)O` (stereo not given), the GI50 in the assay on K562, with SR, in the assay on M14, in the assay on MDA-MB-231, with ACHN and in the assay on KM12 was > 100 µM (inactive) in each case. The GI50 in the assay with SK-MEL-28, in the assay on SNB-19, in the assay on HOP-62, in the assay with A549, in the assay with COLO 205 and in the assay on HL-60 was > 100 µM (inactive) each time. Moreover, the GI50 in the assay with IGROV-1, with NCI-H522, in the assay with DU-145, in the assay on UACC-62, in the assay on HT-29 and in the assay on RPMI-8226 was > 100 µM (inactive) each time. For the same compound, the GI50 in the assay on NCI-H23 and with 786-0 was > 100 µM (inactive) in each case.

Regarding `CC(=O)Oc1c(OC(C)C)c(C)c(O[Si](C(C)C)(C(C)C)C(C)C)c2[nH]c3ccccc3c12`, the GI50 – broadly, the concentration giving 50% growth inhibition – in the assay with K562 was > 100 µM (inactive); in the assay on SR, 25.5 µM (inactive); in the assay on M14, > 94.6 µM (inactive); with MDA-MB-231, > 88.3 µM (inactive); in the assay on ACHN it was > 100 µM (inactive); in the assay on KM12, 67.3 µM (inactive). Also, the GI50 is > 100 µM (inactive) with SK-MEL-28; > 100 µM (inactive) in the assay on SNB-19; > 100 µM (inactive) in the assay on HOP-62; > 82.2 µM (inactive) in the assay on A549; > 100 µM (inactive) in the assay on COLO 205; 2.62 µM (inactive) in the assay on HL-60. For the same compound, the GI50 in the assay with IGROV-1 is > 100 µM (inactive); with NCI-H522, 34.6 µM (inactive); in the assay on DU-145, > 100 µM (inactive); with UACC-62, > 100 µM (inactive); in the assay with HT-29, 38.5 µM (inactive); in the assay on RPMI-8226, 71.1 µM (inactive). Besides, the GI50 in the assay with NCI-H23 is 33.6 µM (inactive); in the assay with 786-0, > 100 µM (inactive).

For the compound `CCC1(C)NC(c2cnccn2)=NN1c1ccc(Cl)cc1` (stereo not given), the GI50 in the assay on K562 is 39.3 µM (inactive); in the assay on SR, 22.1 µM (inactive); in the assay with M14, > 100 µM (inactive); with MDA-MB-231, > 100 µM (inactive); in the assay on ACHN it was > 100 µM (inactive); in the assay with KM12, > 100 µM (inactive). The GI50 in the assay with SK-MEL-28 is > 100 µM (inactive); in the assay with SNB-19, > 100 µM (inactive); in the assay with HOP-62, > 100 µM (inactive); in the assay with A549, > 100 µM (inactive); in the assay with COLO 205, > 100 µM (inactive); with HL-60 it was 48.8 µM (inactive). The GI50 is > 100 µM (inactive) in the assay on IGROV-1; > 100 µM (inactive) with NCI-H522; 65.2 µM (inactive) in the assay on DU-145; > 100 µM (inactive) with UACC-62; 88.1 µM (inactive) with HT-29; 30 µM (inactive) with RPMI-8226. For the same compound, the GI50 is > 100 µM (inactive) in the assay on NCI-H23 and 73.8 µM (inactive) in the assay with 786-0.

As for `O=C1CSC(c2ccccc2)N1c1ccc(-n2c(-c3ccccc3)nc3ccccc3c2=O)cc1` (stereo not given), the GI50 is 33.1 µM (inactive) in the assay with K562; 26.9 µM (inactive) with SR; > 100 µM (inactive) with M14; 47.2 µM (inactive) in the assay with MDA-MB-231; 47.2 µM (inactive) in the assay with ACHN; 41.1 µM (inactive) in the assay with KM12. The GI50 in the assay with SK-MEL-28 was > 80.4 µM (inactive); in the assay with SNB-19, > 69.2 µM (inactive); in the assay with HOP-62, > 100 µM (inactive); in the assay on A549, > 74.6 µM (inactive); in the assay with COLO 205, 54.2 µM (inactive); in the assay on HL-60, 41.8 µM (inactive). The GI50 in the assay on IGROV-1 is 34.8 µM (inactive); in the assay with NCI-H522, 49.7 µM (inactive); with DU-145, > 100 µM (inactive); with UACC-62 it was 33.3 µM (inactive); with HT-29 it was 61.4 µM (inactive); in the assay on RPMI-8226, 42.6 µM (inactive). The GI50 is > 71.3 µM (inactive) in the assay on NCI-H23 and > 92.9 µM (inactive) with 786-0.

On to `C[n+]1[n-]o/c(=N\N=O)c1-c1cc(-c2/c(=N/N=O)o[n-][n+]2C)cc(-c2/c(=N\N=O)o[n-][n+]2C)c1`, for which the GI50 in the assay on K562, in the assay with SR, in the assay on M14, in the assay on MDA-MB-231, in the assay on ACHN and in the assay with KM12 was > 100 µM (inactive) in each case. Moreover, the GI50 in the assay with SK-MEL-28, in the assay with SNB-19, with HOP-62, in the assay with A549, in the assay on COLO 205 and in the assay with HL-60 was > 100 µM (inactive) each time. For the same compound, the GI50 in the assay with IGROV-1, in the assay on NCI-H522, in the assay with DU-145, in the assay on UACC-62, in the assay on HT-29 and in the assay with RPMI-8226 was > 100 µM (inactive) each time. For the same compound, the GI50 in the assay with NCI-H23 and in the assay with 786-0 was > 100 µM (inactive) each time.

For the compound `OCC1CCCCN1Cc1nc2cc(Cl)ccc2[nH]1` (stereo not given), the GI50 in the assay with K562, in the assay with SR, with M14, in the assay on MDA-MB-231, with ACHN and with KM12 was > 100 µM (inactive) each time. The GI50 with SK-MEL-28, with SNB-19, in the assay with HOP-62, in the assay with A549, in the assay on COLO 205 and with HL-60 was > 100 µM (inactive) in each case. Also, the GI50 in the assay with IGROV-1 is > 100 µM (inactive); in the assay with NCI-H522, > 100 µM (inactive); in the assay on DU-145, > 100 µM (inactive); with UACC-62 it was > 100 µM (inactive); with HT-29 it was 56.1 µM (inactive); in the assay on RPMI-8226 it was > 100 µM (inactive). Besides, the GI50 in the assay on NCI-H23 and in the assay with 786-0 was > 100 µM (inactive) throughout.

Consider `COC(=O)[C@]1(CCC(C)=O)C(=O)C=CN([C@H](C)c2ccccc2)[C@@H]1Cc1ccc(OC)c(OCc2ccccc2)c1I`, for which the GI50 with K562 is 17.8 µM (inactive); in the assay on SR, 15.7 µM (inactive); in the assay on M14, 15 µM (inactive); with MDA-MB-231, 15.8 µM (inactive); in the assay on ACHN, 25.7 µM (inactive); in the assay with KM12 it was 19.2 µM (inactive). The GI50 in the assay with SK-MEL-28 is 35.2 µM (inactive); in the assay with SNB-19, 22.5 µM (inactive); in the assay on HOP-62, 22.8 µM (inactive); with A549, 20.4 µM (inactive); with COLO 205 it was 17.9 µM (inactive); in the assay on HL-60, 24 µM (inactive). In addition, the GI50 in the assay with IGROV-1 was 12.6 µM (inactive); in the assay with NCI-H522 it was 20 µM (inactive); with DU-145, 16.7 µM (inactive); in the assay with UACC-62, 14.8 µM (inactive); in the assay with HT-29 it was 14.6 µM (inactive); with RPMI-8226, 14.7 µM (inactive). The values for the GI50 in the assay with NCI-H23 and in the assay with 786-0 were 23.7 µM (inactive) and 17.8 µM (inactive), respectively.

On to `O=C1/C(=C/c2cccc(Cl)c2)CCCc2ccccc21`, for which the GI50 was 14.3 µM (inactive) with K562; 11.6 µM (inactive) in the assay with SR; 16.3 µM (inactive) in the assay with M14; 18.2 µM (inactive) with MDA-MB-231; 16.1 µM (inactive) with ACHN; 17.9 µM (inactive) in the assay with KM12. In addition, the GI50 with SK-MEL-28 is 17.3 µM (inactive); in the assay with SNB-19, 14.9 µM (inactive); in the assay with HOP-62 it was 21.6 µM (inactive); with A549, 26.5 µM (inactive); with COLO 205, 20.5 µM (inactive); in the assay with HL-60, 11.9 µM (inactive). Also, the GI50 is 15.4 µM (inactive) in the assay with IGROV-1; 14.5 µM (inactive) with NCI-H522; 19.2 µM (inactive) in the assay with DU-145; 13.7 µM (inactive) in the assay with UACC-62; 15.8 µM (inactive) in the assay on HT-29; 8.26 µM (inactive) with RPMI-8226. The figures for the GI50 with NCI-H23 and in the assay on 786-0 were 16.1 µM (inactive) and 17.8 µM (inactive), respectively.

Turning to `CCCCCCCCCCCCCCCC(=O)OCC1OC(n2ccc(N)nc2=O)C(O)C1O` (stereo not given), the GI50 in the assay with K562 is 8.24 µM (inactive); in the assay on SR, 1.5 µM (inactive); in the assay on M14, 0.931 µM (active); with MDA-MB-231 it was > 100 µM (inactive); with ACHN, 0.753 µM (active); in the assay on KM12, > 100 µM (inactive). In addition, the GI50 with SK-MEL-28 was 33.5 µM (inactive); in the assay with SNB-19, 16.9 µM (inactive); with HOP-62, 0.403 µM (active); in the assay with A549, 0.601 µM (active); with COLO 205, 15 µM (inactive); in the assay with HL-60, 0.59 µM (active). Moreover, the GI50 is > 100 µM (inactive) in the assay on IGROV-1; 3.08 µM (inactive) in the assay with NCI-H522; 2.12 µM (inactive) in the assay with DU-145; 11.4 µM (inactive) with UACC-62; 35.2 µM (inactive) in the assay on HT-29; > 87.9 µM (inactive) with RPMI-8226. Also, the GI50 was 1.25 µM (inactive) in the assay with NCI-H23 and 4.29 µM (inactive) with 786-0.

As for `O=c1c2ccccc2n2nnc3ccc(NCCNCCO)c1c32`, the GI50 in the assay on K562 is 1.61 µM (inactive); in the assay with SR, 0.649 µM (active); in the assay with M14, 1.91 µM (inactive); in the assay with MDA-MB-231, 2.85 µM (inactive); in the assay on ACHN, 0.824 µM (active); in the assay on KM12, 1.66 µM (inactive). For the same compound, the GI50 was 2.87 µM (inactive) in the assay with SK-MEL-28; 3.05 µM (inactive) in the assay on SNB-19; 2.08 µM (inactive) in the assay with HOP-62; 1.16 µM (inactive) in the assay with A549; 0.946 µM (active) in the assay on COLO 205; 1.71 µM (inactive) in the assay with HL-60. Besides, the GI50 is 2.47 µM (inactive) in the assay on IGROV-1; 1.82 µM (inactive) in the assay on NCI-H522; 0.112 µM (active) in the assay with DU-145; 2.42 µM (inactive) with UACC-62; 0.74 µM (active) with HT-29; 1.82 µM (inactive) in the assay with RPMI-8226. Also, the results for the GI50 in the assay with NCI-H23 and in the assay on 786-0 were 2.31 µM (inactive) and 1.02 µM (active), respectively.

(Values after ChEMBL document CHEMBL1201862, “PubChem BioAssay data set” (2004).)
